According to PubChem BioAssay AID330 (DTP/NCI, 2004):
“And” between values parts separate entries of the source, which are not always exact repeats. Equal entries are not always repeated. Inconclusive results and toxic doses are left out.

Test system: P388 leukemia ip, CD2F1 mice, survival T/C
Test: NCI In Vivo Anticancer Drug Screen. Data for tumor model P388 Leukemia (intraperitoneal) in CD2F1 (CDF1) mice
Conditions: endpoint: median survival time, higher = longer survival
Outline: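 Mice carrying the transplanted tumor received test compound or vehicle. Survival was recorded in each group, and the value is the treated-group measurement divided by that of the vehicle-treated control group.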

[1] = dose: 50.0 mg/kg/injection, schedule: Q01DX005 (ip), vehicle: saline
[2] = dose: 100.0 mg/kg/injection, schedule: Q01DX005 (ip), vehicle: saline
[3] = dose: 50.0 mg/kg/injection, schedule: Q01DX005 (ip), vehicle: Klucel (hydroxypropylcellulose) (HPC)
[4] = dose: 100.0 mg/kg/injection, schedule: Q01DX005 (ip), vehicle: Klucel (hydroxypropylcellulose) (HPC)
[5] = dose: 200.0 mg/kg/injection, schedule: Q01DX005 (ip), vehicle: Klucel (hydroxypropylcellulose) (HPC)
[6] = dose: 60.0 mg/kg/injection, schedule: Q01DX005 (ip), vehicle: saline with Tween-80
[7] = dose: 120.0 mg/kg/injection, schedule: Q01DX005 (ip), vehicle: saline with Tween-80
[8] = dose: 240.0 mg/kg/injection, schedule: Q01DX005 (ip), vehicle: saline with Tween-80
[9] = dose: 50.0 mg/kg/injection, schedule: Q01DX009 (ip), vehicle: saline with Tween-80
[10] = dose: 100.0 mg/kg/injection, schedule: Q01DX009 (ip), vehicle: saline with Tween-80
[11] = dose: 200.0 mg/kg/injection, schedule: Q01DX009 (ip), vehicle: saline with Tween-80
[12] = dose: 12.5 mg/kg/injection, schedule: Q01DX009 (ip), vehicle: saline with Tween-80
[13] = dose: 50.0 mg/kg/injection, schedule: Q01DX005 (ip), vehicle: saline with Tween-80
[14] = dose: 100.0 mg/kg/injection, schedule: Q01DX005 (ip), vehicle: saline with Tween-80
[15] = dose: 100.0 mg/kg/injection, schedule: Q04DX003 (ip), vehicle: saline with Tween-80
[16] = dose: 200.0 mg/kg/injection, schedule: Q04DX003 (ip), vehicle: saline with Tween-80
[17] = dose: 400.0 mg/kg/injection, schedule: Q04DX003 (ip), vehicle: saline with Tween-80
[18] = dose: 25.0 mg/kg/injection, schedule: Q01DX009 (ip), vehicle: saline with Tween-80

For `ClC1=CC(Cl)=C2N=C(C(Cl)(Cl)Cl)N=C3N=C(C(Cl)(Cl)Cl)N=C1N32`, the T/C (dose: 15.0 mg/kg/injection, schedule: Q01DX005 (ip), vehicle: Klucel + Tween-80) was 101 % of control, the T/C (dose: 30.0 mg/kg/injection, schedule: Q01DX005 (ip), vehicle: Klucel + Tween-80) was 95 % of control and the T/C (dose: 60.0 mg/kg/injection, schedule: Q01DX005 (ip), vehicle: Klucel + Tween-80) was 99 % of control and 100 % of control.
`CCO/C(C)=N\P(=O)(Oc1ccccc1)Oc1ccccc1` was tested, and the T/C (dose: 12.5 mg/kg/injection, schedule: Q01DX009 (ip), vehicle: distilled water + Tween-80) was 105 % of control, the T/C (dose: 25.0 mg/kg/injection, schedule: Q01DX009 (ip), vehicle: distilled water + Tween-80) was 102 % of control and the T/C (dose: 50.0 mg/kg/injection, schedule: Q01DX009 (ip), vehicle: distilled water + Tween-80) was 110 % of control. The T/C (dose: 100.0 mg/kg/injection, schedule: Q01DX009 (ip), vehicle: distilled water + Tween-80) was 102 % of control.
For `CC(C)C/C=N\N=C(N)N`, the T/C [1] was 100 % of control and the T/C [2] was 100 % of control.
With `BrCCCOc1ccccc1Br` the T/C [3] was 101 % of control, the T/C [4] was 97 % of control and the T/C [5] was 105 % of control.
In the case of `Cn1c(=O)c2c(O)c(-c3ccccc3)c(=O)n3c4ccccc4n(c1=O)c23`, the T/C [6] is reported as 99 % of control, the T/C [7] is reported as 96 % of control and the T/C [8] is reported as 97 % of control.
`O=c1c(N=Nc2ccccc2)c(O)n(-c2ccccc2Cl)c(=S)n1-c1ccccc1` was tested, and the T/C (dose: 25.0 mg/kg/injection, schedule: Q01DX001 (ip), vehicle: Klucel (hydroxypropylcellulose) (HPC)) was 97 % of control, the T/C (dose: 50.0 mg/kg/injection, schedule: Q01DX001 (ip), vehicle: Klucel (hydroxypropylcellulose) (HPC)) was 104 % of control and the T/C (dose: 100.0 mg/kg/injection, schedule: Q01DX001 (ip), vehicle: Klucel (hydroxypropylcellulose) (HPC)) was 92 % of control.
For `Cc1cccc(=O)[n-]1.Cc1cccc(=O)[n-]1.Cc1cccc(=O)[n-]1.Cc1cccc(=O)[n-]1.[Cr+2].[Cr+2]`, the T/C (dose: 100.0 mg/kg/injection, schedule: Q04DX002 (ip), vehicle: Klucel (hydroxypropylcellulose) (HPC)) was 90 % of control, the T/C (dose: 200.0 mg/kg/injection, schedule: Q04DX002 (ip), vehicle: Klucel (hydroxypropylcellulose) (HPC)) was 110 % of control and the T/C (dose: 400.0 mg/kg/injection, schedule: Q04DX002 (ip), vehicle: Klucel (hydroxypropylcellulose) (HPC)) was 120 % of control.
For `O=C(c1ccncc1)c1cccc(Cl)c1`, the T/C [9] was 103 % of control, the T/C [10] was 108 % of control and the T/C [11] was 104 % of control.
`CNC(=O)Oc1cc(C)c[n+]([O-])c1` was tested, and the T/C [1] was 100 % of control, the T/C [2] was 104 % of control and the T/C (dose: 200.0 mg/kg/injection, schedule: Q01DX005 (ip), vehicle: saline) was 104 % of control.
With `CC1(C)CCC(C)(C)NC(=S)N1` the T/C (dose: 3.13 mg/kg/injection, schedule: Q01DX009 (ip), vehicle: saline with Tween-80) was 96 % of control, the T/C (dose: 6.25 mg/kg/injection, schedule: Q01DX009 (ip), vehicle: saline with Tween-80) was 105 % of control and the T/C [12] was 96 % of control.
In the case of `NNC(=O)CNC(=O)Nc1n[nH]c(=S)s1`, the T/C [9] is reported as 101 % of control and the T/C [10] is reported as 95 % of control.
`S=C(Nc1ccc(Cl)c(Cl)c1)Nc1ccccc1SCc1cc(Cl)cc2c1OCOC2` was tested, and the T/C (dose: 50.0 mg/kg/injection, schedule: Q01DX009 (ip), vehicle: Klucel (hydroxypropylcellulose) (HPC)) was 96 % of control, the T/C (dose: 100.0 mg/kg/injection, schedule: Q01DX009 (ip), vehicle: Klucel (hydroxypropylcellulose) (HPC)) was 88 % of control and the T/C (dose: 200.0 mg/kg/injection, schedule: Q01DX009 (ip), vehicle: Klucel (hydroxypropylcellulose) (HPC)) was 98 % of control.
For `CC(=O)C1=C(C)C2CC3(C)CC(C2(C)C1)C3(C)C` (configuration not stated), the T/C [13] was 100 % of control, the T/C [14] was 102 % of control and the T/C (dose: 200.0 mg/kg/injection, schedule: Q01DX005 (ip), vehicle: saline with Tween-80) was 100 % of control.
For `O=C1c2cccc([N+](=O)[O-])c2C(=O)c2c1oc1ccc3ccccc3c21`, the T/C [3] was 104 % of control, the T/C [4] was 102 % of control and the T/C [5] was 96 % of control.
With `COc1ccc(CC2C(=O)OC(=O)C2Cc2ccc(OC)c(OC)c2)cc1OC` (configuration not stated) the T/C [15] was 100 % of control, the T/C [16] was 90 % of control and the T/C [17] was 100 % of control.
With `CC1CN2CCOC2(C)O1` (configuration not stated) the T/C (dose: 60.0 mg/kg/injection, schedule: Q01DX005 (ip), vehicle: saline) was 106 % of control, the T/C (dose: 120.0 mg/kg/injection, schedule: Q01DX005 (ip), vehicle: saline) was 102 % of control and the T/C (dose: 240.0 mg/kg/injection, schedule: Q01DX005 (ip), vehicle: saline) was 101 % of control.
`CCCC(=O)O` was tested, and the T/C (dose: 50.0 mg/kg/injection, schedule: Q01DX009 (ip), vehicle: saline) was 93 % of control, the T/C (dose: 100.0 mg/kg/injection, schedule: Q01DX009 (ip), vehicle: saline) was 91 % of control and the T/C (dose: 200.0 mg/kg/injection, schedule: Q01DX009 (ip), vehicle: saline) was 90 % of control.
`C(=NCCN=Cc1ccc2c(c1)OCO2)c1ccc2c(c1)OCO2` was tested, and the T/C [18] was 93 % of control, the T/C [9] was 92 % of control and the T/C [10] was 99 % of control. The T/C [11] was 100 % of control.
In the case of `O=C1C2C3CCC(C2C(=O)N1CO)C1C2C(=O)N(CO)C(=O)C2C31` (configuration not stated), the T/C [12] is reported as 105 % of control, the T/C [18] is reported as 102 % of control and 116 % of control and the T/C [9] is reported as 166 % of control. For the same compound, the T/C [10] was 205 % of control and 208 % of control.
In the case of `CCOC(=O)Oc1ccc(CC([NH-])C(=O)O)cc1.CCOC(=O)Oc1ccc(CC([NH-])C(=O)O)cc1.[Cu+2]` (configuration not stated), the T/C (dose: 6.25 mg/kg/injection, schedule: Q01DX009 (ip), vehicle: saline) is reported as 100 % of control, the T/C (dose: 12.5 mg/kg/injection, schedule: Q01DX009 (ip), vehicle: saline) is reported as 100 % of control and the T/C (dose: 25.0 mg/kg/injection, schedule: Q01DX009 (ip), vehicle: saline) is reported as 100 % of control.
In the case of `[N-]=[N+]=Nc1ccnc2c(C(F)(F)F)cccc12`, the T/C [6] is reported as 108 % of control, the T/C [7] is reported as 100 % of control and the T/C [8] is reported as 92 % of control.
With `CCN(CC)CCNc1ccc(COC(C)=O)c2sc3ccccc3c(=O)c12` the T/C (dose: 6.25 mg/kg/injection, schedule: Q01DX005 (ip), vehicle: saline with Tween-80) was 109 % of control and 123 % of control, the T/C (dose: 12.5 mg/kg/injection, schedule: Q01DX005 (ip), vehicle: saline with Tween-80) was 121 % of control and the T/C [13] was 118 % of control.
`Brc1ccc2[nH]c3nc(N/N=C/c4cccs4)nnc3c2c1` was tested, and the T/C (dose: 100.0 mg/kg/injection, schedule: Q04DX002 (ip), vehicle: saline with Tween-80) was 90 % of control, the T/C (dose: 200.0 mg/kg/injection, schedule: Q04DX002 (ip), vehicle: saline with Tween-80) was 99 % of control and the T/C (dose: 400.0 mg/kg/injection, schedule: Q04DX002 (ip), vehicle: saline with Tween-80) was 106 % of control.
In the case of `Nc1c(Cl)c(Cl)cc(Cl)c1Cl`, the T/C [15] is reported as 100 % of control, the T/C [16] is reported as 104 % of control and the T/C [17] is reported as 104 % of control.
With `COc1cc(OC)c2c(c1)OC(=O)C(C(C)=O)C2` (configuration not stated) the T/C [13] was 96 % of control and the T/C [14] was 112 % of control.
`Clc1ncccc1-n1cccc1/C=N\N=C/c1cccn1-c1cccnc1Cl` was tested, and the T/C [6] was 97 % of control and the T/C [7] was 89 % of control.
For `[Cl][Zn][Cl].c1ccc2[nH]cnc2c1.c1ccc2[nH]cnc2c1`, the T/C (dose: 12.5 mg/kg/injection, schedule: Q01DX005 (ip), vehicle: Klucel (hydroxypropylcellulose) (HPC)) was 100 % of control, the T/C (dose: 25.0 mg/kg/injection, schedule: Q01DX005 (ip), vehicle: Klucel (hydroxypropylcellulose) (HPC)) was 108 % of control and the T/C [3] was 100 % of control.
With `C(=C\c1ccccc1)/C[P+](c1ccccc1)(c1ccccc1)c1ccccc1` the T/C (dose: 0.62 mg/kg/injection, schedule: Q01DX009 (ip), vehicle: saline) was 90 % of control, the T/C (dose: 0.63 mg/kg/injection, schedule: Q01DX009 (ip), vehicle: saline with Tween-80) was 100 % of control and the T/C (dose: 1.25 mg/kg/injection, schedule: Q01DX009 (ip), vehicle: saline with Tween-80) was 122 % of control. For the same compound, the T/C (dose: 1.25 mg/kg/injection, schedule: Q01DX009 (ip), vehicle: saline) was 93 % of control, the T/C (dose: 2.5 mg/kg/injection, schedule: Q01DX009 (ip), vehicle: saline with Tween-80) was 109 % of control and the T/C (dose: 2.5 mg/kg/injection, schedule: Q01DX009 (ip), vehicle: saline) was 90 % of control. The T/C (dose: 5.0 mg/kg/injection, schedule: Q01DX009 (ip), vehicle: saline) was 98 % of control.
